Measurements as given in patent publication US20120077828A1, “CHEMICAL COMPOUNDS” (priority 2010, published 2012).

Target: T1, PERK (Homo sapiens, UniProt Q9NZJ5)
T1 construct: GST-PERK (536-1116) cytoplasmic domain was purchased from Invitrogen; purchased Invitrogen PV5106
T1 sequence (Q9NZJ5 536-1116): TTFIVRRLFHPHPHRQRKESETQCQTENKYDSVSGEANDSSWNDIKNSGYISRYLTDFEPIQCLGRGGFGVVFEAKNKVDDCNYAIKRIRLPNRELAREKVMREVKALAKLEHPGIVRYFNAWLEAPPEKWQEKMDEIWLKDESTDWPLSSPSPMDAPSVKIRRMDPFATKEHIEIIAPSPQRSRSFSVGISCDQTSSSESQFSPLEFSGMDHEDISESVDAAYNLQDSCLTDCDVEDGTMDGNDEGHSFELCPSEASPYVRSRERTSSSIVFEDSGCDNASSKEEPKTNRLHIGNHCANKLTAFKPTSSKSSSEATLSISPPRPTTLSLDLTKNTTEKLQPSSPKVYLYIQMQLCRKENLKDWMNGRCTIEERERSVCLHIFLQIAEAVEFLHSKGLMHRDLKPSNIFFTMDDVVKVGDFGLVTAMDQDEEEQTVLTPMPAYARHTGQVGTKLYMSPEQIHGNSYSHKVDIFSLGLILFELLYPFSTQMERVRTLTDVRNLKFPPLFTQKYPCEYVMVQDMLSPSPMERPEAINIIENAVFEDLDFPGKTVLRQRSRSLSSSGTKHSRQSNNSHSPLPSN
Experiment: PKR-like Endoplasmic Reticulum Kinase (PERK) Assay (HTRF Format)
Format: biochemical
Settings: average, in at least one set of experimental runs; read-out: average pIC50 value against PERK (converted)
Description: PKR-like Endoplasmic Reticulum Kinase (PERK) Assay (HTRF Format)
Source of substrate: elF2α: 6-His-Full-length human elF2α is purified from baculovirus expression in Sf9 insect cells. The elF2 protein is buffer exchanged by dialysis into PBS, chemically modified by NHS-LC-Biotin and then buffer exchanged by dialysis into 50 mm TRIS pH 7.2/250 mM NaCl/5 mM DTT. Protein is aliquoted and stored at −80° C.
Assays were performed by adding GST-PERK solution to assay plates containing compounds and pre-incubated for 30 minutes at room temperature. The reaction is initiated by the addition of ATP and EIF2α substrate solution. Quench solution is added following a one hour incubation at room temperature. The plates are covered for 2 hours at room temperature prior to determination of signal. The resulting signal is quantified on a Viewlux Reader (PerkinElmer). The APC Signal is normalized to the Europium signal by transforming the data through an APC/Eu calculation.
Compounds under analysis were dissolved in DMSO to 1.0 mM and serially diluted 1 to 3 with DMSO through eleven dilutions. 0.1 μl of each concentration was transferred to the corresponding well of an assay plate. This creates a final compound concentration range from 0.00017 to 10 μM.
The data for concentration response curves were plotted as % Inhibition calculated with the data reduction formula 100*(1−(U1−C2)/(C1−C2)) versus concentration of compound where U is the unknown value, C1 is the average control value obtained for 1% DMSO, and C2 is the average control value obtained for 0.1 M EDTA. Data were fitted with a curve described by:
where A is the minimum y, B is the maximum y concentration [M], D is the slope factor, and x is the log10 of the compound.
In the above data, pIC50 is defined as −log(IC50) where the IC50 value is expressed in molar units.

IC50 [nM] | SMILES
≤ 1 | CN(C)CCn1cc(-c2ccc3c(c2)CCN3C(=O)Cc2cccc(C(F)(F)F)c2)c2c(N)ncnc21 [Example 134, 7-[2-(dimethylamino)ethyl]-5-(1-{[3-(trifluoromethyl)phenyl]acetyl}-2,3-dihydro-1H-indol-5-yl)-7H-pyrrolo[2,3-d]pyrimidin-4-amine]
≤ 0.316 | Cn1cc(-c2ccc3c(c2)CCN3C(=O)Cc2cc(F)cc(Cl)c2)c2c(N)ncnc21 [Example 53, 5-{1-[(3-chloro-5-fluorophenyl)acetyl]-2,3-dihydro-1H-indol-5-yl}-7-methyl-7H-pyrrolo[2,3-d]pyrimidin-4-amine]
≤ 1 | Cc1cccc(CC(=O)N2CCc3cc(-c4cn(C)c5ncnc(N)c45)ccc32)c1C [Example 81, 5-{1-[(2,3-dimethylphenyl)acetyl]-2,3-dihydro-1H-indol-5-yl}-7-methyl-7H-pyrrolo[2,3-d]pyrimidin-4-amine]
≤ 0.316 | Cc1cc(F)cc(CC(=O)N2CCc3cc(-c4cn(C)c5ncnc(N)c45)ccc32)c1 [Example 45, 5-{1-[(3-fluoro-5-methylphenyl)acetyl]-2,3-dihydro-1H-indol-5-yl}-7-methyl-7H-pyrrolo[2,3-d]pyrimidin-4-amine]
≤ 0.316 | Cc1cccc(CC(=O)N2CCc3cc(-c4cncc5[nH]nc(N)c45)ccc32)c1 [Example 130, 4-{1-[(3-methylphenyl)acetyl]-2,3-dihydro-1H-indol-5-yl}-1H-pyrazolo[3,4-c]pyridin-3-amine]
≤ 1 | Cc1ccc(F)c(CC(=O)N2CCc3cc(-c4cn(C)c5ncnc(N)c45)ccc32)c1 [Example 73, 5-{1-[(2-fluoro-5-methylphenyl)acetyl]-2,3-dihydro-1H-indol-5-yl}-7-methyl-7H-pyrrolo[2,3-d]pyrimidin-4-amine]
≤ 1 | Cc1cccc(CC(=O)N2CCc3cc(-c4csc5ncnc(N)c45)ccc32)c1 [Example 64, 5-{1-[(3-methylphenyl)acetyl]-2,3-dihydro-1H-indol-5-yl}thieno[2,3-d]pyrimidin-4-amine]
≤ 2.51 | Cc1cccc(CC(=O)N2CCc3cc(-c4nn(C(C)C)c5ncnc(N)c45)ccc32)c1 [Example 82, 1-(1-methylethyl)-3-{1-[(3-methylphenyl)acetyl]-2,3-dihydro-1H-indol-5-yl}-1H-pyrazolo[3,4-d]pyrimidin-4-amine]
≤ 1 | Cc1cc(C)cc(CC(=O)N2CCc3cc(-c4nn(C)c5ncnc(N)c45)ccc32)c1 [Example 30, 3-{1-[(3,5-dimethylphenyl)acetyl]-2,3-dihydro-1H-indol-5-yl}-1-methyl-1H-pyrazolo[3,4-d]pyrimidin-4-amine]
≤ 1 | CN1CC(n2cc(-c3ccc4c(c3)CCN4C(=O)Cc3cccc(C(F)(F)F)c3)c3c(N)ncnc32)C1 [Example 133, 7-(1-methyl-3-azetidinyl)-5-(1-{[3-(trifluoromethyl)phenyl]acetyl}-2,3-dihydro-1H-indol-5-yl)-7H-pyrrolo[2,3-d]pyrimidin-4-amine]
≤ 2.51 | Cn1cc(-c2ccc3c(c2)CCN3C(=O)Cc2ccc(F)cc2F)c2c(N)ncnc21 [Example 102, 5-{1-[(2,4-difluorophenyl)acetyl]-2,3-dihydro-1H-indol-5-yl}-7-methyl-7H-pyrrolo[2,3-d]pyrimidin-4-amine]
≤ 0.316 | Cc1cccc(CC(=O)N2CCc3cc(-c4cn(C)c5ncnc(N)c45)ccc32)c1F [Example 71, 5-{1-[(2-fluoro-3-methylphenyl)acetyl]-2,3-dihydro-1H-indol-5-yl}-7-methyl-7H-pyrrolo[2,3-d]pyrimidin-4-amine]
≤ 2.51 | NCCc1cnc(N)c2c(-c3ccc4c(c3F)CCN4C(=O)Cc3cc(F)ccc3F)coc12 [Example 146, 7-(2-aminoethyl)-3-{1-[(2,5-difluorophenyl)acetyl]-4-fluoro-2,3-dihydro-1H-indol-5-yl}furo[3,2-c]pyridin-4-amine]
≤ 0.316 | Nc1ncnc2c1c(-c1ccc3c(c1)CCN3C(=O)Cc1cc(F)ccc1F)cn2C1CNC1 [Example 144, 7-(3-azetidinyl)-5-{1-[(2,5-difluorophenyl)acetyl]-2,3-dihydro-1H-indol-5-yl}-7H-pyrrolo[2,3-d]pyrimidin-4-amine]
≤ 1 | Cc1cccc(CC(=O)N2CCc3cc(-c4cn(C5CCNCC5)c5ncnc(N)c45)ccc32)c1 [Example 62, 5-{1-[(3-methylphenyl)acetyl]-2,3-dihydro-1H-indol-5-yl}-7-(4-piperidinyl)-7H-pyrrolo[2,3-d]pyrimidin-4-amine]
≤ 0.316 | Cc1ccc(C)c(CC(=O)N2CCc3cc(-c4nn(C)c5ncnc(N)c45)ccc32)c1 [Example 28, 3-{1-[(2,5-dimethylphenyl)acetyl]-2,3-dihydro-1H-indol-5-yl}-1-methyl-1H-pyrazolo[3,4-d]pyrimidin-4-amine]
≤ 0.316 | Cn1cc(-c2ccc3c(c2F)CCN3C(=O)Cc2ccc(F)cc2)c2c(N)ncnc21 [Example 141, 5-{4-fluoro-1-[(4-fluorophenyl)acetyl]-2,3-dihydro-1H-indol-5-yl}-7-methyl-7H-pyrrolo[2,3-d]pyrimidin-4-amine]

SMILES | IC50 [nM]
Cn1cc(-c2ccc3c(c2)CCN3C(=O)Cc2ccccc2F)c2c(N)ncnc21 [Example 34, 5-{1-[(2-fluorophenyl)acetyl]-2,3-dihydro-1H-indol-5-yl}-7-methyl-7H-pyrrolo[2,3-d]pyrimidin-4-amine] | ≤ 0.316
Cc1cccc(CC(=O)N2CCc3cc(-c4cn(C)c5ncnc(N)c45)ccc32)n1 [Example 121, 7-methyl-5-{1-[(6-methyl-2-pyridinyl)acetyl]-2,3-dihydro-1H-indol-5-yl}-7H-pyrrolo[2,3-d]pyrimidin-4-amine] | ≤ 2.51
Cc1cccc(CC(=O)N2CCc3cc(-c4cn(C)c5ncnc(N)c45)ccc32)c1 [Example 37, 7-methyl-5-{1-[(3-methylphenyl)acetyl]-2,3-dihydro-1H-indol-5-yl}-7H-pyrrolo[2,3-d]pyrimidin-4-amine] | ≤ 0.316
Cn1cc(-c2ccc3c(c2)CCN3C(=O)Cc2cccc(Cl)c2)c2c(N)ncnc21 [Example 46, 5-{1-[(3-chlorophenyl)acetyl]-2,3-dihydro-1H-indol-5-yl}-7-methyl-7H-pyrrolo[2,3-d]pyrimidin-4-amine] | ≤ 0.316
Cc1cc(C)n(CC(=O)N2CCc3cc(-c4cn(C)c5ncnc(N)c45)ccc32)n1 [Example 111, 5-{1-[(3,5-dimethyl-1H-pyrazol-1-yl)acetyl]-2,3-dihydro-1H-indol-5-yl}-7-methyl-7H-pyrrolo[2,3-d]pyrimidin-4-amine] | ≤ 1
Nc1ncc(C2=CCNCC2)c2scc(-c3ccc4c(c3)CCN4C(=O)Cc3ccccc3)c12 [Example 19, 3-[1-(phenylacetyl)-2,3-dihydro-1H-indol-5-yl]-7-(1,2,3,6-tetrahydro-4-pyridinyl)thieno[3,2-c]pyridin-4-amine] | ≤ 2.51
Cn1cc(-c2ccc3c(c2F)CCN3C(=O)Cc2cccc(C(F)(F)F)n2)c2c(N)ncnc21 [Example 137, 5-(4-fluoro-1-{[6-(trifluoromethyl)-2-pyridinyl]acetyl}-2,3-dihydro-1H-indol-5-yl)-7-methyl-7H-pyrrolo[2,3-d]pyrimidin-4-amine] | ≤ 1
Cc1cccc(CC(=O)N2CCc3c2ccc(-c2cn(C)c4ncnc(N)c24)c3F)n1 [Example 136, 5-{4-fluoro-1-[(6-methyl-2-pyridinyl)acetyl]-2,3-dihydro-1H-indol-5-yl}-7-methyl-7H-pyrrolo[2,3-d]pyrimidin-4-amine] | ≤ 1
Nc1ncnc2scc(-c3ccc4c(c3)CCN4C(=O)Cc3cc(F)ccc3F)c12 [Example 31, 5-{1-[(2,5-difluorophenyl)acetyl]-2,3-dihydro-1H-indol-5-yl}thieno[2,3-d]pyrimidin-4-amine] | ≤ 1
Cn1cc(-c2ccc3c(c2)CCN3C(=O)Cc2cc(F)cc(F)c2F)c2c(N)ncnc21 [Example 90, 7-methyl-5-{1-[(2,3,5-trifluorophenyl)acetyl]-2,3-dihydro-1H-indol-5-yl}-7H-pyrrolo[2,3-d]pyrimidin-4-amine] | ≤ 0.316
